In patent US10106540B2, “HDAC6 inhibitors and their uses” (Universität Regensburg, priority 2014, dated 2018):

What was measured:
HEL leukemic cells = assay: Western blot analysis in HEL leukemic cells (JAK2 V617F); type: cell-based, human; details: 24 h, Western blot
Procedure: Human leukemia cell line HEL with JAK2 V617F mutation (DSMZ Accession No: ACC-11).
The assay is carried out as described in Buchwald et al. 2010 and Buchwald et al. 2013. Briefly, cells were collected and lysed in NET-N buffer (150 mM NaCl, 1 mM EDTA, 50 mM Tris-HCl (pH 7.8), 0.5% Nonidet P-40 (NP-40), 1 mM phenylmethylsulfonyl fluoride, 0.5 mg/ml leupeptin and 0.5 mg/ml pepstatin) followed by mild sonification on ice. Protein lysate ([…]) was boiled in Laemmli buffer and separated on SDS-polyacrylamide gel electrophoresis for western blotting with specific antibodies. All lysates were assessed by Bradford assay for protein concentrations.

BV173 cells = assay: Cell cycle analysis by PI staining and flow cytometry (FACS method b); type: cell-based, human; details: BV173, PI staining
Procedure: 150,000 cells were seeded in 12 well plate and incubated for 2 h for adaption. Cells were harvested on ice and prepared for FACS analysis (following method b). The FACS blots were generated using FACS diva software. n=1
After harvesting the cells on ice and washing them with 1 ml cold PBS, the Pellet were fixed for 1 h in 80% Ethanol by −20° C. After centrifugation the supernatant was discarded and the pellet was resuspended in 333 μl PBS with 10 μg RNase. The cells were incubated 1 h at room temperature with RNase before adding propidium iodide to a final concentration of 16.4 μg/ml and measured by flow cytometry (BD FACS Canto II).

nuclear proteins = assay: Nuclear extracts versus cytoplasm after MARB1 stimulation, Western blot; type: cell-based
Procedure: Nuclear extracts were generated and compared to the cytoplasm by western blotting. 6 Mio cells were seeded on a 10 cm dish and incubated 2 h in the medium for adaption. SAHA and […] are pan-HDACi. HSP90 was used as a loading control for the cytoplasm. n=2
SDS-PAGE and Western Blot Analysis Method b
Western Blot analysis method b was used for the blots illustrated in FIGS. 6 to 9 and 11: Equal amounts of proteins were separated with a sodium dodecyl sulfate-polyacrylamide gel electrophoresis (SDS-PAGE) using an electrophoresis buffer by Laemmli with 1% SDS. The proteins were transferred to a nitrocellulose membrane by western blotting using a wet blot chamber. The blots were incubated with the primary antibody, after blocking the membrane for 1 h in 5% non-fat dry milk in tris-buffered saline (TBS) containing 0.05% Tween-20. Fluorescence coupled secondary antibodies (LI-COR) were used and the signal was measured on the Odyssey to detect the proteins.
The cells for nuclear extracts were harvested on ice after stimulation and washed with cold PBS. The pellet was resuspended in lysis buffer A (10 mM HEPES pH 7.9, 1.5 mM MgCl2, 10 mM KCl, 1 mM DTT and protease and phosphatase inhibitor) and incubated for 15 min on ice followed by addition of NP-40 to a final concentration of 1%. […] The protein level was assessed by Bradford assay (Goder et al. 2015).

CN1C(=O)C2CN(Cc3c2c2ccccc2n3Cc2ccc(C(=O)NO)cc2)C1=O (stereo not shown) [MARB1, N-Hydroxy-4-((4-methyl-3,5-dioxo-3,4,5,6-tetrahydro-2,6-methano[1,3]diazocino[5,6-b]indol-11(1H)-yl)methyl)benzamide]
concentration with about the same potency in hyperacetylation of tubulin-α (HEL leukemic cells): ~1000 nM
changes in the cell cycle (BV173 cells): no changes in the cell cycle
subG1 population (BV173 cells): no increase
effects on nuclear proteins (nuclear proteins): no detectable effects
